Structures are written as SMILES.

Compound `*/C(C)=C(/*)SCCCCCCCCCC` (repeat unit) registered a glass transition temperature of 60.00 °C.

The compound `*/C(C)=[C](/*)[Ge]([CH3])([CH3])[CH3]` (repeat unit) showed a glass transition temperature of 250.00 °C.

`*=Nc1cccc(S(=O)(=O)c2cccc(/N=C3/OC(=O)c4ccc(Oc5ccc6c(c5)C(=O)OC6=*)cc43)c2)c1` (repeat unit): the glass transition temperature was 190.00 °C.

Compound `*C#Cc1cccc(C#C[SiH](*)C)c1` (repeat unit) had a glass transition temperature of 72.00 °C.

For the compound `*CC(*)C(=O)OCCCCCCCCCCOC(=O)c1ccc(OC(=O)c2ccc(C#N)cc2)cc1` (repeat unit), the glass transition temperature amounted to 15.00 °C.

In turn, `*CC(*)C(=O)OCCCCCCOC(=O)c1ccc(OC(=O)c2ccc(C#N)cc2)cc1` (repeat unit) came in with a glass transition temperature of 30.00 °C.

As to `*CC(*)C(=O)OCCCCCCOc1ccc(/C=N/c2ccc(OCCCCC)cc2)c(O)c1` (repeat unit), the glass transition temperature is 41.00 °C.

`*CC(*)C(=O)OCCCCCCOc1ccc(/N=N/c2ccc([N+](=O)[O-])cc2)cc1` (repeat unit) showed a glass transition temperature of 35.80 °C.

As for `*CC(*)C(=O)OCCCCCCOc1ccc(C(=O)Oc2ccc(C#N)cc2)cc1` (repeat unit), the glass transition temperature worked out at 19.50 °C.

The compound `*CC(*)C(=O)OCCCCCCSCC#N` (repeat unit) displayed a glass transition temperature of -59.00 °C.

Regarding `*CC(*)C(=O)OCCCCCn1c2ccccc2c2ccccc21` (repeat unit), the glass transition temperature worked out at 53.00 °C.

The compound `*CC(*)C(=O)OCCCCSC` (repeat unit) gave a glass transition temperature of -70.00 °C.

`*CC(*)C(=O)OCCCCn1c2ccccc2c2ccccc21` (repeat unit) registered a glass transition temperature of 68.00 °C.

Turning to `*CC(*)C(=O)OCCCOc1ccc(C(=O)OCCCC(F)(F)C(F)(F)C(F)(F)C(F)(F)C(F)(F)C(F)(F)C(F)(F)C(F)(F)F)cc1` (repeat unit), the glass transition temperature worked out at 48.00 °C.

Compound `*CC(*)C(=O)OCCCSCCC#N` (repeat unit) returned a glass transition temperature of -58.00 °C.

Consider `*CC(*)C(=O)OCCOC` (repeat unit), for which the glass transition temperature was -34.00 °C.

`*CC(*)C(=O)OCCOCC(F)(F)C(F)(F)C(F)(F)F` (repeat unit) yielded a glass transition temperature of -45.00 °C.

`*CC(*)C(=O)OCCOc1ccc(C(=O)Oc2ccc(OC(=O)c3ccc(OCCCC)cc3)cc2)cc1` (repeat unit) gave a glass transition temperature of 45.00 °C.

Turning to `*CC(*)C(=O)OCCn1c2ccccc2c2ccccc21` (repeat unit), the glass transition temperature turned out to be 106.80 °C.

`*CC(*)C(=O)OCF` (repeat unit) registered a glass transition temperature of 15.00 °C.

With `*CC(*)C(=O)OCc1ccc(C#N)cc1` (repeat unit), the glass transition temperature was 44.00 °C.

The compound `*CC(*)C(=O)[O][Na]` (repeat unit) gave a glass transition temperature of 114.40 °C.

Take `*CC(*)C(=O)Oc1ccc(/N=N/c2ccc([N+](=O)[O-])cc2)cc1` (repeat unit): the glass transition temperature amounted to 134.00 °C.

As for `*CC(*)C(=O)Oc1ccc(C(=O)O)cc1` (repeat unit), the glass transition temperature stood at 125.00 °C.

`*CC(*)C(=O)Oc1ccc(C(=O)OC)cc1` (repeat unit) registered a glass transition temperature of 67.00 °C.

`*CC(*)C(=O)Oc1ccc(C)cc1` (repeat unit) registered a glass transition temperature of 42.50 °C.

Regarding `*CC(*)C(=O)Oc1ccc(Cl)cc1Cl` (repeat unit), the glass transition temperature came out at 60.00 °C.

`*CC(*)C(=O)Oc1cccc(N(C)C)c1` (repeat unit): the glass transition temperature turned out to be 47.00 °C.

Take `*CC(*)C(=O)Oc1ccccc1` (repeat unit): the glass transition temperature stood at 60.00 °C.

In turn, `*CC(*)C(=O)Oc1ccccc1C(=O)OC` (repeat unit) yielded a glass transition temperature of 46.00 °C.

As for `*CC(*)C(=O)Oc1ccccc1C(=O)OCC` (repeat unit), the glass transition temperature was found to be 30.00 °C.

In turn, `*CC(*)C(=O)Oc1ccccc1C(C)(C)C` (repeat unit) had a glass transition temperature of 72.00 °C.

With `*CC(*)C(=O)Oc1ccccc1Cl` (repeat unit), the glass transition temperature amounted to 318.00 °C.

Compound `*CC(*)C(=O)c1ccc(Br)cc1` (repeat unit) yielded a glass transition temperature of 101.50 °C.

`*CC(*)C(=O)c1ccc(C(C)C)cc1` (repeat unit) had a glass transition temperature of 62.50 °C.

`*CC(*)C(=O)c1ccc(C)cc1` (repeat unit) displayed a glass transition temperature of 59.50 °C.

Compound `*CC(*)C(=O)c1ccc(OC)cc1` (repeat unit) had a glass transition temperature of 46.00 °C.

`*CC(*)C1=NCCN1` (repeat unit) registered a glass transition temperature of -48.3 °C.

`*CC(*)C1CCC(C)CC1` (repeat unit) came in with a glass transition temperature of 132.00 °C.

As for `*CC(*)CCC1CCCCC1` (repeat unit), the glass transition temperature amounted to 40.00 °C.

`*CC(*)CCCC` (repeat unit) displayed a glass transition temperature of -50.00 °C.

In turn, `*CC(*)CCCCCCCCCC` (repeat unit) came in with a glass transition temperature of -6.00 °C.

In turn, `*CC(*)CCCCCCCCCCCCCC` (repeat unit) showed a glass transition temperature of -24.00 °C.

On to `*CC(*)CCCCCCCCCCCCCCCC` (repeat unit), for which the glass transition temperature was determined as 55.00 °C.

In turn, `*CC(*)CCCCCCCCCCCCCCCCCC` (repeat unit) showed a glass transition temperature of -88.00 °C.

In turn, `*CC(*)CCc1ccccc1` (repeat unit) had a glass transition temperature of 10.00 °C.

`*CC(*)CNc1ccc([N+](=O)[O-])c(C(F)(F)F)c1` (repeat unit) had a glass transition temperature of 153.00 °C.

For the compound `*CC(*)CNc1ccc([N+](=O)[O-])cc1` (repeat unit), the glass transition temperature was determined as 144.00 °C.

In turn, `*CC(*)CNc1ccc([N+](=O)[O-])cn1` (repeat unit) returned a glass transition temperature of 151.00 °C.

`*CC(*)Cc1ccc(C)cc1` (repeat unit) showed a glass transition temperature of 65.00 °C.

`*CC(*)Cc1cccc(C)c1` (repeat unit) displayed a glass transition temperature of 40.00 °C.

Consider `*CC(*)Cc1ccccc1` (repeat unit), for which the glass transition temperature came to 70.00 °C.

In the case of `*CC(*)Cc1ccccc1C` (repeat unit), the glass transition temperature turned out to be 80.00 °C.

Regarding `*CC(*)OC(=O)/C=C/c1ccccc1` (repeat unit), the glass transition temperature worked out at 127.00 °C.

On to `*CC(*)OC(=O)C(C)(C)C(C)(C)CC` (repeat unit), for which the glass transition temperature amounted to 90.00 °C.

Regarding `*CC(*)OC(=O)C(C)(C)CC(C)(C)C` (repeat unit), the glass transition temperature was 55.00 °C.

For the compound `*CC(*)OC(=O)C(C)(C)CCC` (repeat unit), the glass transition temperature came out at 10.00 °C.

As for `*CC(*)OC(=O)C(F)(F)C(F)(F)C(F)(F)C(F)(F)C(F)(F)C(F)(F)C(F)(F)F` (repeat unit), the glass transition temperature is -10.00 °C.

`*CC(*)OC(=O)C(F)(F)C(F)(F)C(F)(F)C(F)(F)F` (repeat unit) came in with a glass transition temperature of 20.00 °C.

Turning to `*CC(*)OC(=O)C(F)(F)C(F)(F)C(F)(F)F` (repeat unit), the glass transition temperature amounted to 27.00 °C.

The compound `*CC(*)OC(=O)C1(F)C(F)(F)C(F)(F)C(F)(F)C(F)(F)C1(F)F` (repeat unit) returned a glass transition temperature of 54.00 °C.

`*CC(*)OC(=O)C1CCCCC1` (repeat unit): the glass transition temperature was 66.00 °C.

As for `*CC(*)OC(=O)c1ccc(C(C)C)cc1` (repeat unit), the glass transition temperature was determined as 67.70 °C.

For `*CC(*)OC(=O)c1cccc(Br)c1` (repeat unit), the glass transition temperature came to 57.50 °C.

`*CC(*)OC(=O)c1cccc(Cl)c1` (repeat unit) showed a glass transition temperature of 61.8 °C.

Compound `*CC(*)OC(=O)c1ccccc1` (repeat unit) displayed a glass transition temperature of 70.40 °C.

The compound `*CC(*)OCCOCCOCCOC` (repeat unit) showed a glass transition temperature of -76.00 °C.

Turning to `*CC(*)OCCOc1ccc(/N=N/c2ccc(C#N)cc2)cc1` (repeat unit), the glass transition temperature is 61.00 °C.

The compound `*CC(*)OCCOc1ccc(C=C(C#N)C#N)cc1` (repeat unit) displayed a glass transition temperature of 38.00 °C.

Regarding `*CC(*)SCC` (repeat unit), the glass transition temperature is -7.00 °C.

Turning to `*CC(*)SCCCC` (repeat unit), the glass transition temperature was -20.00 °C.

Regarding `*CC(*)c1c(Cl)cccc1Cl` (repeat unit), the glass transition temperature turned out to be 165.00 °C.

In turn, `*CC(*)c1c(F)c(F)c(OC)c(F)c1F` (repeat unit) displayed a glass transition temperature of 94.00 °C.

`*CC(*)c1cc(Br)ccc1OCC` (repeat unit) yielded a glass transition temperature of 80.00 °C.

On to `*CC(*)c1cc(Br)ccc1OCCCCC` (repeat unit), for which the glass transition temperature worked out at 49.00 °C.

As to `*CC(*)c1cc(C(=O)OC)ccc1-c1ccc(OCCCCCCCC)cc1` (repeat unit), the glass transition temperature turned out to be 126.00 °C.

Regarding `*CCCCCCOc1ccc(C(=O)N(C(=O)c2ccc(O*)cc2)c2ccc(Oc3ccccc3)cc2)cc1` (repeat unit), the glass transition temperature turned out to be 78.00 °C.

In the case of `*O[Si](C)(C)C#Cc1ccc(C#C[Si](*)(C)C)cc1` (repeat unit), the glass transition temperature stood at 126.00 °C.

Take `*O[Si](C)(C)O[Si](C)(C)C#Cc1ccc(C#C[Si](*)(C)C)cc1` (repeat unit): the glass transition temperature amounted to 104.00 °C.

On to `*O[Si](C)(C)O[Si](C)(C)O[Si](C)(C)C#Cc1ccc(C#C[Si](*)(C)C)cc1` (repeat unit), for which the glass transition temperature was 96.00 °C.

`*O[Si](C)(C)O[Si](C)(C)O[Si](C)(C)O[Si](C)(C)C#Cc1ccc(C#C[Si](*)(C)C)cc1` (repeat unit): the glass transition temperature turned out to be 84.00 °C.

For `*O[Si](C)(C)O[Si](C)(C)O[Si](C)(C)O[Si](C)(C)O[Si](C)(C)C#Cc1ccc(C#C[Si](*)(C)C)cc1` (repeat unit), the glass transition temperature was 78.00 °C.

The compound `*Oc1ccc(Oc2ccc(/C(=N\c3ccccc3)c3ccc(Oc4ccc(Oc5cccc(*)n5)cc4)cc3)cc2)cc1` (repeat unit) gave a glass transition temperature of 135.00 °C.

The record behind these values is the PolyMetriX glass transition set.
